Where only a bound is given, the exact number is not on record here.

This is an account of results in patent publication US20100331269A1, “TRITERPENES DERIVATIVES AND USES THEREOF AS ANTITUMOR AGENTS OR ANTI-INFLAMMATORY AGENTS” (priority 2006, published 2010).

Assay [1] has as its system DLD-1 human colorectal adenocarcinoma cells. Kind of assay: Cytotoxicity, resazurin metabolism assay, DLD-1. Format: cell-based. As to conditions: 48 h, mean ± SD. Summed up: (§1)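 Cells plated at 5×10^3/well, adhered 16 h, then exposed to increasing compound concentrations (DMSO) for 48 h. Viability by resazurin reduction, fluorescence ex 530/em 590 nm, blank-subtracted versus control wells; IC50 as mean±SD from three experiments in triplicate.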
In general terms: Alamar Blue is a resazurin reagent that responds to reducing activity.

The subject of the next assay is A-549 cells. Kind of assay: Cytotoxicity, Hoechst DNA assay, A-549. Format: cell-based, human. The note with it: ± SD. Summed up: (§2)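 Cells grown at 37 °C, 5% CO2, in MEM with 10% FBS. Compound cytotoxicity was measured by Hoechst DNA staining. Activity is expressed as IC50, the concentration inhibiting 50% of cell growth.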
A further assay relates to Lewis lung carcinoma. The assay can be described thus: In vivo antitumoral activity against Lewis lung cancer-bearing mice. On the set-up: species or system C57BL/6 mouse. As to conditions: day 13. How it is done:
Cell lines and mice preparation: The Lewis lung carcinoma cell lines (#CRL-1642, lot # 4372266, ATCC) and the C57BL/6 mouse strain (Charles River Inc., St-Constant, Qc) were used. Cells were grown to 90% confluence in complete DMEM medium containing Earle's salts and L-glutamine (Mediatech Cellgro, Va.), 10% foetal bovine serum (Hyclone), vitamins (1×), penicillin (100 I.U./mL) and streptomycin (100 μg/mL), essential amino acids (1×) and sodium pyruvate (1×) (Mediatech Cellgro, Va.). Cells were then harvested with up and down only. Cells were counted using a hemacytometer and resuspended in DMEM medium without SVF. 100 μL of a solution containing 1×10^7 cells/mL was inoculated subcutaneously in the right flank of each 6 weeks old mouse on day zero.
The experimental mice were weighed daily.
Data analysis: In vivo antitumor activity was evaluated according to the parameters as follows (Miot-Noirault, E. et al. Invest. New Drugs 2004, 22, 369-378):
(a) Calculated tumour weight (CTW): The CTW of each tumour was estimated from two-dimensional measurements performed once a day with a slide calliper, according to the formula: CTW (mg)=(L×W^2)/2 with L=length in mm and W=width in mm. Differences in CTW between treated and control groups (DMSO) were analyzed for significance using the U Wilcoxon-Mann-Whitney test and Student t-test. Values of p<0.05 were considered statistically significant.
(b) Treated/Control value (T/C) and Tumour Growth Inhibition (TGI):The T/C was calculated as the ratio of the mean CTW of TW of drug-treated mice versus controls: T/C=(CTW of the drug-treated group on Day X/CTW of the control group on Day X)×100. TGI is 100−(T/C) value.

Assay [2] relates to WS-1 human normal skin fibroblasts. The assay can be described thus: Cytotoxicity, resazurin metabolism assay, WS-1. The note with it: 48 h, mean ± SD. Format: cell-based. Summed up: as §1
For assay [3], the system named is L1210 murine lymphocytic leukemia. The note with it: 200 mg/kg; cited from earlier work.
Another assay has as its system WS-1 cells. The assay can be described thus: Cytotoxicity, Hoechst DNA assay, WS-1. The class given is cell-based, human. The note with it: ± SD. A digest of the protocol: as §2
Assay [4] relates to B16-F1 mouse melanoma cells. Kind of assay: Cytotoxicity, resazurin metabolism assay, B16-F1. The class given is cell-based. As to conditions: 48 h, mean ± SD. A digest of the protocol: as §1
Another assay relates to B16-F1 cells. Kind of assay: Cytotoxicity, Hoechst DNA assay, B16-F1. Format: cell-based, mouse. The note with it: ± SD. Summed up:
as §2

The test system of assay [5] is A-549 human lung carcinoma cells. Kind of assay: Cytotoxicity, resazurin metabolism assay, A-549. The class given is cell-based. As to conditions: 48 h, mean ± SD. A digest of the protocol:
as §1

In another assay the test system is DLD-1 cells. Kind of assay: Cytotoxicity, Hoechst DNA assay, DLD-1. Format: cell-based, human. As to conditions: ± SD. Summed up:
as §2

Assay [6] relates to Walker 256 murine carcinosarcoma. As to conditions: cited from earlier work.
Assay [7] relates to NO production in lipopolysaccharide (LPS) stimulated cells. As to conditions: read-out: IC50 (NO production); cells stimulated with 100 ug/ml LPS, 24 h, Griess reaction. (In general: The Griess reaction detects nitrite, a stable product of nitric oxide.)
Description: Exponentially growing cells were plated in 24-well microplates (BD Falcon) at a density of 2×10^5 cells per well in 400 μl of culture medium and were allowed to adhere overnight. Cells were then treated or not with positive control N(G)-nitro-L-arginine methyl ester (L-NAME), or increasing concentrations of methanol extracts dissolved in the appropriate solvents, and incubated at 37° C., 5% CO2 for 24 h. The final concentration of solvent in the culture medium was maintained at 0.5% (volume/volume) to avoid solvent toxicity. Cells were then stimulated with 100 ug/ml lipopolysaccharide (LPS). After 24 h, cell-free supernatants were collected and stored at −80° C. until NO determination using the Griess reaction (Green et al. 1990) with minor modifications. Briefly, 100 μl aliquots of cell supernatants were incubated with 50 μl of 1% sulfanilamide and 50 μl of 0.1% N-1-naphtylethylenediamine dihydrochloride in 2.5% H3PO4 at room temperature for 20 min. Absorbance at 540 nm was then measured using an automated 96-well Varioskan Ascent™ plate reader (Thermo Electron) and the presence of nitrite was quantified by comparison with an NaNO2 standard curve.

`C=C(C)[C@@H]1CC[C@]2(C(=O)O)CC[C@]3(C)[C@H](CC[C@@H]4[C@@]5(C)CC[C@H](O)C(C)(C)[C@@H]5CC[C@]43C)[C@@H]12` [Compound 3, Betulinic acid, reference compound]: the IC50 turned out to be 15 ± 0.3 µM in assay [1]; 8 ± 1 µM in the assay with A-549 cells; 12 ± 1 µM in assay [2]; 14 ± 2 µM in the assay on WS-1 cells; 16.1 ± 0.5 µM in assay [4]; 18 ± 2 µM in the assay on B16-F1 cells. Also, the IC50 was found to be 10.3 ± 0.4 µM in [5] and 12 ± 1 µM in the assay with DLD-1 cells. The “CTW (calculated tumour weight)” value with Lewis lung carcinoma (50 mg/kg IP every 3-4 days) was 294 ± 69 mg; with Lewis lung carcinoma (100 mg/kg IP every 3-4 days), 264 ± 58 mg; with Lewis lung carcinoma (200 mg/kg IP every 3-4 days), 265 ± 58 mg. Besides, the results for the “T/C (Treated/Control)” value with Lewis lung carcinoma (50 mg/kg IP), with Lewis lung carcinoma (100 mg/kg IP) and in the assay with Lewis lung carcinoma (200 mg/kg IP) were 90%, 81% and 81%, respectively. Moreover, the “TGI (Tumour Growth Inhibition)” value turned out to be 10% in the assay on Lewis lung carcinoma (50 mg/kg IP), 19% in the assay on Lewis lung carcinoma (100 mg/kg IP) and 19% with Lewis lung carcinoma (200 mg/kg IP). Also, the “Activity in the L1210 murine lymphocytic leukemia model” value in assay [3] was “inactive”. Also, the “Activity in the Walker 256 model (subsequent report)” value in assay [6] (400 mg/kg) was “inactive”. Besides, in [6] (dose levels of 300 and 500 mg/kg body weight), the “Activity against the Walker 256 murine carcinosarcoma tumor system” value was “dose-dependent activity”.
For the compound `C=C(C)C1CCC2(COC3OCC(O)C(O)C3O)CCC3(C)C(CCC4C5(C)CCC(O)C(C)(C)C5CCC43C)C12` [Compound 17, 28-O-α-D-Arabinopyranoside of Betulin], the IC50 in assay [1] is more than 175 µM; with A-549 cells, more than 194 µM; in assay [2], more than 175 µM; in the assay with WS-1 cells, more than 194 µM; in assay [4] it was more than 175 µM; in the assay on B16-F1 cells it was more than 194 µM. Moreover, the IC50 was 25 ± 1 µM in assay [7], more than 175 µM in [5] and more than 194 µM in the assay with DLD-1 cells.

In general, IC50 refers to the concentration at which inhibition is half-maximal.
